Measurements published in PubChem BioAssay AID248 (DTP/NCI, 2004).
Several values for one entry are separate records, joined by “and”; a condition that tells them apart may be missing. Identical values can stand only once. Inconclusive results and toxic doses are left out.

System: L1210 leukemia ip in BDF1 mice, survival T/C
Assay: NCI In Vivo Anticancer Drug Screen. Data for tumor model L1210 Leukemia (intraperitoneal) in B6D2F1 (BDF1) mice
Settings: endpoint: mean survival time, higher = longer survival
Procedure, shortened: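 Transplanted-tumor mice were given test agent; controls received vehicle only. Survival readings from the two groups were divided (treated over control).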

[1] = dose: 50.0 mg/kg/injection, schedule: Q01DX009 (ip), vehicle: saline
[2] = dose: 100.0 mg/kg/injection, schedule: Q01DX009 (ip), vehicle: saline
[3] = dose: 200.0 mg/kg/injection, schedule: Q01DX009 (ip), vehicle: saline
[4] = dose: 100.0 mg/kg/injection, schedule: Q01DX001 (ip), vehicle: carboxymethylcellulose (CMC)
[5] = dose: 200.0 mg/kg/injection, schedule: Q01DX001 (ip), vehicle: carboxymethylcellulose (CMC)
[6] = dose: 400.0 mg/kg/injection, schedule: Q01DX001 (ip), vehicle: carboxymethylcellulose (CMC)
[7] = dose: 100.0 mg/kg/injection, schedule: Q04DX003 (ip), vehicle: saline
[8] = dose: 200.0 mg/kg/injection, schedule: Q04DX003 (ip), vehicle: saline
[9] = dose: 400.0 mg/kg/injection, schedule: Q04DX003 (ip), vehicle: saline
[10] = dose: 100.0 mg/kg/injection, schedule: Q04DX003 (ip), vehicle: saline with Tween-80
[11] = dose: 200.0 mg/kg/injection, schedule: Q04DX003 (ip), vehicle: saline with Tween-80
[12] = dose: 400.0 mg/kg/injection, schedule: Q04DX003 (ip), vehicle: saline with Tween-80
[13] = dose: 100.0 mg/kg/injection, schedule: Q01DX009 (ip), vehicle: Klucel (hydroxypropylcellulose) (HPC)
[14] = dose: 200.0 mg/kg/injection, schedule: Q01DX009 (ip), vehicle: Klucel (hydroxypropylcellulose) (HPC)
[15] = dose: 400.0 mg/kg/injection, schedule: Q01DX009 (ip), vehicle: Klucel (hydroxypropylcellulose) (HPC)
[16] = dose: 100.0 mg/kg/injection, schedule: Q01DX001 (ip), vehicle: saline
[17] = dose: 200.0 mg/kg/injection, schedule: Q01DX001 (ip), vehicle: saline
[18] = dose: 400.0 mg/kg/injection, schedule: Q01DX001 (ip), vehicle: saline
[19] = dose: 50.0 mg/kg/injection, schedule: Q01DX001 (ip), vehicle: saline

Compound: CCCCCCOC(=O)N1CCN(c2ccccc2)CC1
- T/C [1]: 106 % of control
- T/C [2]: 92 % of control
- T/C [3]: 90 % of control

Compound: CCC(CC)C[N+](C)(C)C
- T/C (dose: 75.0 mg/kg/injection, schedule: Q01DX001 (ip), vehicle: saline): 95 % of control
- T/C (dose: 150.0 mg/kg/injection, schedule: Q01DX001 (ip), vehicle: saline): 104 % of control

Compound: O=C1/C(=C/c2cccc3ccccc23)CCc2ccccc21
- T/C [4]: 97 % of control
- T/C [5]: 95 % of control
- T/C [6]: 97 % of control

Compound: Nc1nc2c(c(-c3ccc(Cl)cc3)n1)CN(Cc1ccccc1)C2=O
- T/C [1]: 98 % of control
- T/C [2]: 104 % of control
- T/C [7]: 101 % of control
- T/C [3]: 106 % of control
- T/C [8]: 100 % of control
- T/C [9]: 89 % of control

Compound: Cc1nc2c(Cl)cc(Cl)cc2s1
- T/C (dose: 100.0 mg/kg/injection, schedule: Q01DX001 (ip), vehicle: acetone): 100 % of control
- T/C [7]: 95 % of control
- T/C (dose: 200.0 mg/kg/injection, schedule: Q01DX001 (ip), vehicle: acetone): 106 % of control
- T/C [8]: 90 % of control
- T/C (dose: 400.0 mg/kg/injection, schedule: Q01DX001 (ip), vehicle: acetone): 102 % of control
- T/C [9]: 92 % of control

Compound: CCCCCCCCCCCCCCCCCCOc1cccc(C(F)(F)F)c1
- T/C (dose: 100.0 mg/kg/injection, schedule: Q01DX001 (ip), vehicle: saline with Tween-80): 89 % of control
- T/C (dose: 200.0 mg/kg/injection, schedule: Q01DX001 (ip), vehicle: saline with Tween-80): 91 % of control

Compound: c1cc[n+]2c(c1)CC[n+]1ccccc1CC2
- T/C (dose: 50.0 mg/kg/injection, schedule: Q01DX001 (ip), vehicle: carboxymethylcellulose (CMC)): 106 % of control
- T/C [4]: 100 % of control
- T/C [5]: 122 % of control
- T/C [6]: 106 % of control

Compound: O=c1cc(-c2ccccc2)c2ccc(O)cc2o1
- T/C [10]: 95 % of control
- T/C [11]: 101 % of control
- T/C [12]: 93 % of control

Compound: COC(=O)CC(O)(CC(=O)OC)C(=O)OC
- T/C [13]: 93 % of control
- T/C [14]: 104 % of control
- T/C [15]: 93 % of control

Compound: COC(=O)c1cc(C)cc(N)c1C
- T/C [16]: 102 % of control
- T/C [17]: 109 % of control
- T/C [18]: 104 % of control

Compound: O=C1NC(c2ccc(Cl)cc2)N2C(=O)NC(c3ccc(Cl)cc3)N12 (centres undefined)
- T/C (dose: 50.0 mg/kg/injection, schedule: Q04DX002 (ip), vehicle: saline with Tween-80): 97 % of control
- T/C (dose: 100.0 mg/kg/injection, schedule: Q04DX002 (ip), vehicle: saline with Tween-80): 94 % of control
- T/C (dose: 200.0 mg/kg/injection, schedule: Q04DX002 (ip), vehicle: saline with Tween-80): 97 % of control

Compound: CC1([N+](=O)[O-])COP(=O)(OCCc2ccccc2)OC1 (centres undefined)
- T/C [19]: 95 % of control
- T/C [16]: 98 % of control
- T/C [17]: 93 % of control
- T/C [18]: 98 % of control

Compound: CCCCCC[N+](C)(C)CCOC(=O)C1C2CC3OC(=O)C1C3C2 (centres undefined)
- T/C [7]: 97 % of control

Compound: CC(C)=CCCC(C)C/C=N\N=C(N)N (centres undefined)
- T/C (dose: 15.0 mg/kg/injection, schedule: Q01DX Z (ip), vehicle: carboxymethylcellulose (CMC)): 95 % of control
- T/C (dose: 30.0 mg/kg/injection, schedule: Q01DX Z (ip), vehicle: carboxymethylcellulose (CMC)): 98 % of control
- T/C (dose: 30.0 mg/kg/injection, schedule: Q01DX Z (oral), vehicle: carboxymethylcellulose (CMC)): 118 % of control
- T/C (dose: 60.0 mg/kg/injection, schedule: Q01DX Z (ip), vehicle: carboxymethylcellulose (CMC)): 97 % of control
- T/C (dose: 60.0 mg/kg/injection, schedule: Q01DX Z (oral), vehicle: carboxymethylcellulose (CMC)): 101 % of control
- T/C (dose: 120.0 mg/kg/injection, schedule: Q01DX Z (oral), vehicle: carboxymethylcellulose (CMC)): 97 % of control
- T/C (dose: 240.0 mg/kg/injection, schedule: Q01DX Z (oral), vehicle: carboxymethylcellulose (CMC)): 101 % of control

Compound: COc1ccc(C=NC2C(OC(C)=O)OC(COS(=O)(=O)c3ccc(C)cc3)C(OC(C)=O)C2OC(C)=O)cc1 (centres undefined)
- T/C [10]: 101 % of control
- T/C [11]: 101 % of control
- T/C [12]: 93 % of control

Compound: Nc1nc(N)c2nc(CO)cnc2n1
- T/C (dose: 12.5 mg/kg/injection, schedule: Q01DX009 (ip), vehicle: Klucel (hydroxypropylcellulose) (HPC)): 98 % of control
- T/C (dose: 25.0 mg/kg/injection, schedule: Q01DX009 (ip), vehicle: Klucel (hydroxypropylcellulose) (HPC)): 102 % of control
- T/C (dose: 50.0 mg/kg/injection, schedule: Q01DX009 (ip), vehicle: Klucel (hydroxypropylcellulose) (HPC)): 101 % of control and 105 % of control
- T/C [13]: 101 % of control

Compound: CCCCCCCCCCCCCCCCC(/C=N/N=C(N)N)=N\N=C(N)N
- T/C (dose: 15.0 mg/kg/injection, schedule: Q01DX Z (ip), vehicle: methylcellulose (MC)): 95 % of control
- T/C (dose: 30.0 mg/kg/injection, schedule: Q01DX Z (ip), vehicle: methylcellulose (MC)): 98 % of control
- T/C (dose: 60.0 mg/kg/injection, schedule: Q01DX Z (ip), vehicle: methylcellulose (MC)): 110 % of control
- T/C (dose: 120.0 mg/kg/injection, schedule: Q01DX Z (ip), vehicle: methylcellulose (MC)): 103 % of control
- T/C (dose: 240.0 mg/kg/injection, schedule: Q01DX Z (ip), vehicle: methylcellulose (MC)): 101 % of control
- T/C (dose: 360.0 mg/kg/injection, schedule: Q01DX Z (ip), vehicle: methylcellulose (MC)): 97 % of control
- T/C (dose: 480.0 mg/kg/injection, schedule: Q01DX Z (ip), vehicle: methylcellulose (MC)): 98 % of control
- T/C (dose: 720.0 mg/kg/injection, schedule: Q01DX Z (oral), vehicle: methylcellulose (MC)): 97 % of control
- T/C (dose: 960.0 mg/kg/injection, schedule: Q01DX Z (oral), vehicle: methylcellulose (MC)): 93 % of control

Compound: CCOC(=O)N/N=C(/C)OCC
- T/C [7]: 102 % of control
- T/C [8]: 102 % of control

Compound: CCOC(=O)C(O)(CC)c1cc[n+](Cc2cc3ccccc3nc2Cl)cc1C (centres undefined)
- T/C [19]: 115 % of control
- T/C [16]: 94 % of control

Compound: O=C(O)CCCCSc1ncnc2nc[nH]c12
- T/C (dose: 15.0 mg/kg/injection, schedule: Q01DX009 (ip), vehicle: saline with Tween-80): 106 % of control
- T/C (dose: 15.0 mg/kg/injection, schedule: Q01DX009 (oral), vehicle: saline with Tween-80): 98 % of control
- T/C (dose: 30.0 mg/kg/injection, schedule: Q01DX009 (ip), vehicle: saline with Tween-80): 103 % of control
- T/C (dose: 30.0 mg/kg/injection, schedule: Q01DX009 (oral), vehicle: saline with Tween-80): 86 % of control
- T/C (dose: 60.0 mg/kg/injection, schedule: Q01DX009 (ip), vehicle: saline with Tween-80): 92 % of control
- T/C (dose: 60.0 mg/kg/injection, schedule: Q01DX009 (oral), vehicle: saline with Tween-80): 95 % of control
- T/C [13]: 113 % of control
- T/C (dose: 100.0 mg/kg/injection, schedule: Q04DX003 (ip), vehicle: Klucel (hydroxypropylcellulose) (HPC)): 107 % of control
- T/C [10]: 103 % of control
- T/C (dose: 120.0 mg/kg/injection, schedule: Q01DX009 (ip), vehicle: saline with Tween-80): 123 % of control
- T/C (dose: 120.0 mg/kg/injection, schedule: Q01DX009 (oral), vehicle: saline with Tween-80): 109 % of control
- T/C [14]: 101 % of control
- T/C (dose: 200.0 mg/kg/injection, schedule: Q04DX003 (ip), vehicle: Klucel (hydroxypropylcellulose) (HPC)): 102 % of control
- T/C [11]: 104 % of control
- T/C (dose: 240.0 mg/kg/injection, schedule: Q01DX009 (ip), vehicle: saline with Tween-80): 105 % of control
- T/C (dose: 240.0 mg/kg/injection, schedule: Q01DX009 (oral), vehicle: saline with Tween-80): 91 % of control
- T/C [15]: 116 % of control
- T/C (dose: 400.0 mg/kg/injection, schedule: Q04DX003 (ip), vehicle: Klucel (hydroxypropylcellulose) (HPC)): 115 % of control
- T/C [12]: 103 % of control
- T/C (dose: 480.0 mg/kg/injection, schedule: Q01DX009 (ip), vehicle: saline with Tween-80): 118 % of control
- T/C (dose: 480.0 mg/kg/injection, schedule: Q01DX009 (oral), vehicle: saline with Tween-80): 100 % of control
- T/C (dose: 720.0 mg/kg/injection, schedule: Q01DX009 (oral), vehicle: saline with Tween-80): 100 % of control

Compound: O=C1CCOP(=O)(NCCCl)N1CCCl (centres undefined)
- T/C (dose: 100.0 mg/kg/injection, schedule: Q04DX002 (ip), vehicle: saline): 115 % of control
- T/C (dose: 400.0 mg/kg/injection, schedule: Q04DX002 (ip), vehicle: saline): 175 % of control
